The nature of data set [1]: Cytotoxicity against mouse RAW264.7 cells assessed as growth inhibition at 50 ug/ml after 48 hrs by MTT assay relative to control. It counts as cell-based. To be noted: read-out: GI.
For data set [2], the system named is Mycobacterium tuberculosis. In words: Antitubercular activity against Mycobacterium tuberculosis H37Rv after 7 days by Alamar blue assay. It counts as functional. The settings on record: 168 h. (Alamar Blue is a resazurin reagent that responds to reducing activity.)

Consider 25 molecules from ChEMBL document CHEMBL4004872, “A robust synthesis of functionalized 2H-indazoles via solid state melt reaction (SSMR) and their anti-tubercular activity” (Bioorg Med Chem Lett, 2017).

Structures are written as SMILES. Values after ≈ are worked out from the molar mass of the structure shown.

In general, MIC99 refers to an inhibitory concentration at the 99% level, which refers to growth in some studies and to a panel of isolates in others. With `O=C(Nc1ccccn1)c1ccccc1-n1cc2ccccc2n1`, the inhibition at 48 h, 50 ug/ml in data set [1] amounted to 31.8%. This molecule also showed an MIC99 in data set [2] of 19.9 µM (≈ 6.26 µg/mL).

Regarding `O=C(NCc1ccc(Cl)cc1)c1ccccc1-n1cc2ccccc2n1`, in data set [1], the inhibition at 48 h, 50 ug/ml is 28.1%. In data set [2], this molecule came in with an MIC99 of 8.66 µM (≈ 3.13 µg/mL).

As for `Cc1ccc(NC(=O)c2ccccc2-n2cc3ccccc3n2)c(C)c1`, the inhibition at 48 h, 50 ug/ml in data set [1] was determined as 36.7%. Further, in data set [2], the MIC99 was found to be 18.3 µM (≈ 6.25 µg/mL).

For the molecule `O=C(NCc1ccccc1)c1ccccc1-n1cc2ccccc2n1`, the inhibition at 48 h, 50 ug/ml in data set [1] was found to be 31.6%. For the same molecule, the MIC99 in data set [2] came out at 19.1 µM (≈ 6.26 µg/mL).

On to `O=C(NCc1ccc(F)cc1)c1ccccc1-n1cc2ccccc2n1`, for which, in data set [2], the MIC99 amounted to 36.3 µM (≈ 12.6 µg/mL). In other words, the double-digit micromolar range.

With `CCCCNC(=O)c1ccccc1-n1cc2ccccc2n1`, the MIC99 in data set [2] worked out at 85.3 µM (≈ 25 µg/mL).

Take `CC(C)(C)NC(=O)c1ccccc1-n1cc2ccccc2n1`: the MIC99 in data set [2] was found to be 42.7 µM (≈ 12.5 µg/mL).

In turn, `COc1ccc(NC(=O)c2ccccc2-n2cc3ccccc3n2)cc1` registered an MIC99 in data set [2] of 36.4 µM (≈ 12.5 µg/mL).

For the molecule `O=C(NCc1ccccc1)c1ccccc1-n1cc2ccc(Cl)cc2n1`, the inhibition at 48 h, 50 ug/ml in data set [1] stood at 30.6%. The same molecule registered an MIC99 in data set [2] of 17.3 µM (≈ 6.26 µg/mL).

In turn, `O=C(NC1CCCCC1)c1ccccc1-n1cc2ccccc2n1` registered an MIC99 in data set [2] of 78.4 µM (≈ 25 µg/mL).

`COc1ccc(CNC(=O)c2ccccc2-n2cc3ccccc3n2)cc1` displayed an MIC99 in data set [2] of 35 µM (≈ 12.5 µg/mL).

In data set [2], `O=C(Nc1ccc(F)cc1)c1ccccc1-n1cc2ccccc2n1` returned an MIC99 of 37.8 µM (≈ 12.5 µg/mL). The MIC99 values of the last two molecules are within 1.5-fold of each other.

With `O=C(NCc1ccccc1)c1ccccc1-n1cc2cc3c(cc2n1)OCO3`, the inhibition at 48 h, 50 ug/ml in data set [1] is 22.9%. The molecule also displayed an MIC99 in data set [2] of 4.2 µM (≈ 1.56 µg/mL).

As to `O=C(NCCc1c[nH]c2ccccc12)c1ccccc1-n1cc2ccccc2n1`, the inhibition at 48 h, 50 ug/ml in data set [1] was found to be 18.8%. Also, in data set [2], the MIC99 was found to be 16.4 µM (≈ 6.25 µg/mL).

In turn, `Cc1ccnc(NC(=O)c2ccccc2-n2cc3ccccc3n2)c1` came in with an MIC99 in data set [2] of 38.1 µM (≈ 12.5 µg/mL). This counts as double-digit micromolar.

For `COc1cc(NC(=O)c2ccccc2-n2cc3ccccc3n2)cc(OC)c1OC`, the inhibition at 48 h, 50 ug/ml in data set [1] stood at 32.1%. The MIC99 in data set [2] is 7.75 µM (≈ 3.13 µg/mL).

Consider `O=C(Nc1ccccc1)c1ccccc1-n1cc2ccccc2n1`, for which, in data set [1], the inhibition at 48 h, 50 ug/ml was 39.6%. Moreover, the MIC99 in data set [2] was determined as 15.8 µM (≈ 4.96 µg/mL).

Molecule `O=C(NCc1ccccc1)c1ccccc1-n1cc2ccc(Br)cc2n1` displayed an MIC99 in data set [2] of 56.4 µM (≈ 22.9 µg/mL). That is a double-digit micromolar value.

As to `O=C(NCc1ccccc1)c1ccccc1-n1cc2cc(Br)ccc2n1`, the inhibition at 48 h, 50 ug/ml in data set [1] was 40.5%. In addition, the MIC99 in data set [2] worked out at 7.72 µM (≈ 3.14 µg/mL).

As for `O=C(NCc1ccccc1Cl)c1ccccc1-n1cc2ccccc2n1`, in data set [1], the inhibition at 48 h, 50 ug/ml turned out to be 23.7%. The same molecule came in with an MIC99 in data set [2] of 10.6 µM (≈ 3.83 µg/mL).

For `Cc1ccc(CNC(=O)c2ccccc2-n2cc3ccccc3n2)cc1`, in data set [1], the inhibition at 48 h, 50 ug/ml amounted to 34.5%. This molecule showed an MIC99 in data set [2] of 9.16 µM (≈ 3.13 µg/mL).

Molecule `O=C(Nc1ccccc1O)c1ccccc1-n1cc2ccccc2n1` came in with an MIC99 in data set [2] of 38 µM (≈ 12.5 µg/mL).

In turn, `CC[C@@H](CO)NCCN[C@@H](CC)CO` [ETHAMBUTOL] returned an MIC99 in data set [2] of 7.6 µM (≈ 1.55 µg/mL).

In data set [2], `NNC(=O)c1ccncc1` [ISONIAZID] showed an MIC99 of 0.4 µM (≈ 0.0549 µg/mL). Compared with the last molecule, the MIC99 is about 19-fold lower.

`CO[C@H]1/C=C/O[C@@]2(C)Oc3c(C)c(O)c4c(O)c(c(/C=N/N5CCN(C)CC5)c(O)c4c3C2=O)NC(=O)/C(C)=C\C=C\[C@H](C)[C@H](O)[C@@H](C)[C@@H](O)[C@@H](C)[C@H](OC(C)=O)[C@@H]1C` [RIFAMPIN] came in with an MIC99 in data set [2] of 0.5 µM (≈ 0.411 µg/mL).
